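Tested at 5 concentrations; 48 h exposure; 96-well plates; endpoints linearly interpolated, else capped at highest concentration. Here, GI50 denotes the concentration required for 50% inhibition of growth. TGI denotes the concentration required for complete inhibition of growth.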
Experiments:
Experiment in all cases: growth of human tumour cells (NCI), 48 h
MCF7 breast = tested on: MCF7 breast
SR leukemia = tested on: SR leukemia
SK-OV-3 ovarian = tested on: SK-OV-3 ovarian
KM12 colon = tested on: KM12 colon
PC-3 prostate = tested on: PC-3 prostate
CCRF-CEM leukemia = tested on: CCRF-CEM leukemia
786-0 renal = tested on: 786-0 renal
M14 melanoma = tested on: M14 melanoma
SK-MEL-28 melanoma = tested on: SK-MEL-28 melanoma
SNB-75 CNS = tested on: SNB-75 CNS
TK-10 renal = tested on: TK-10 renal
SNB-19 CNS = tested on: SNB-19 CNS
NCI-H522 lung = tested on: NCI-H522 lung
COLO 205 colon = tested on: COLO 205 colon
HL-60(TB) leukemia = tested on: HL-60(TB) leukemia
OVCAR-4 ovarian = tested on: OVCAR-4 ovarian
ACHN renal = tested on: ACHN renal
UO-31 renal = tested on: UO-31 renal
EKVX NSCLC = tested on: EKVX NSCLC
MOLT-4 leukemia = tested on: MOLT-4 leukemia
HS 578T breast = tested on: HS 578T breast
SF-539 CNS = tested on: SF-539 CNS
U251 CNS = tested on: U251 CNS
HOP-92 NSCLC = tested on: HOP-92 NSCLC
K-562 leukemia = tested on: K-562 leukemia
NCI-H226 lung = tested on: NCI-H226 lung
MALME-3M melanoma = tested on: MALME-3M melanoma
OVCAR-5 ovarian = tested on: OVCAR-5 ovarian
SF-268 CNS = tested on: SF-268 CNS
SW-620 colon = tested on: SW-620 colon
NCI-H23 lung = tested on: NCI-H23 lung
SK-MEL-2 melanoma = tested on: SK-MEL-2 melanoma
SF-295 CNS = tested on: SF-295 CNS
A549 NSCLC = tested on: A549 NSCLC
MDA-MB-231 breast = tested on: MDA-MB-231 breast
HCC-2998 colon = tested on: HCC-2998 colon
SK-MEL-5 melanoma = tested on: SK-MEL-5 melanoma
HT29 colon = tested on: HT29 colon
NCI/ADR-RES ovarian = tested on: NCI/ADR-RES ovarian
UACC-62 melanoma = tested on: UACC-62 melanoma
HCT-116 colon = tested on: HCT-116 colon
OVCAR-8 ovarian = tested on: OVCAR-8 ovarian
SN12C renal = tested on: SN12C renal
RPMI-8226 leukemia = tested on: RPMI-8226 leukemia
UACC-257 melanoma = tested on: UACC-257 melanoma
HCT-15 colon = tested on: HCT-15 colon
LOX IMVI melanoma = tested on: LOX IMVI melanoma
T-47D breast = tested on: T-47D breast
MDA-MB-435 = tested on: MDA-MB-435
OVCAR-3 ovarian = tested on: OVCAR-3 ovarian
HOP-62 NSCLC = tested on: HOP-62 NSCLC
BT-549 breast = tested on: BT-549 breast
RXF 393 renal = tested on: RXF 393 renal
A498 renal = tested on: A498 renal
NCI-H460 lung = tested on: NCI-H460 lung
IGROV1 ovarian = tested on: IGROV1 ovarian

Compound: CC[C@H](C)[C@H]1NC(=O)[C@@H]([C@H](O)C(C)C)NC(=O)[C@@H](C)N(C)C(=O)[C@H](C)N(C)C(=O)[C@H](CC(C)C)NC(=O)[C@H](CC(C)C)N(C)C(=O)[C@H](C)N(C)C1=O
- GI50 (MCF7 breast): 192 nM
- TGI (MCF7 breast): > 14300 nM
- GI50 (SR leukemia): 526 nM
- TGI (SR leukemia): > 14300 nM
- GI50 (SK-OV-3 ovarian): 418 nM
- TGI (SK-OV-3 ovarian): 11100 nM
- GI50 (KM12 colon): 326 nM
- TGI (KM12 colon): > 14300 nM
- GI50 (PC-3 prostate): 364 nM
- TGI (PC-3 prostate): > 14300 nM
- GI50 (CCRF-CEM leukemia): 562 nM
- TGI (CCRF-CEM leukemia): > 14300 nM
- GI50 (786-0 renal): 267 nM
- TGI (786-0 renal): > 14300 nM
- GI50 (M14 melanoma): 274 nM
- TGI (M14 melanoma): 3850 nM
- GI50 (SK-MEL-28 melanoma): 223 nM
- TGI (SK-MEL-28 melanoma): 1760 nM
- GI50 (SNB-75 CNS): 280 nM
- TGI (SNB-75 CNS): > 14300 nM
- GI50 (TK-10 renal): 276 nM
- TGI (TK-10 renal): 9720 nM
- GI50 (SNB-19 CNS): 266 nM
- TGI (SNB-19 CNS): > 14300 nM
- GI50 (NCI-H522 lung): 329 nM
- TGI (NCI-H522 lung): 4700 nM
- GI50 (COLO 205 colon): 278 nM
- TGI (COLO 205 colon): 4390 nM
- GI50 (HL-60(TB) leukemia): 995 nM
- TGI (HL-60(TB) leukemia): > 14300 nM
- GI50 (OVCAR-4 ovarian): 409 nM
- TGI (OVCAR-4 ovarian): > 14300 nM
- GI50 (ACHN renal): 401 nM
- TGI (ACHN renal): > 14300 nM
- GI50 (UO-31 renal): 383 nM
- TGI (UO-31 renal): > 14300 nM
- GI50 (EKVX NSCLC): 341 nM
- TGI (EKVX NSCLC): > 14300 nM
- GI50 (MOLT-4 leukemia): 512 nM
- TGI (MOLT-4 leukemia): > 14300 nM
- GI50 (HS 578T breast): 261 nM
- TGI (HS 578T breast): 4750 nM
- GI50 (SF-539 CNS): 409 nM
- TGI (SF-539 CNS): 4190 nM
- GI50 (U251 CNS): 265 nM
- TGI (U251 CNS): > 14300 nM
- GI50 (HOP-92 NSCLC): 397 nM
- TGI (HOP-92 NSCLC): 12100 nM
- GI50 (K-562 leukemia): 547 nM
- TGI (K-562 leukemia): > 14300 nM
- GI50 (NCI-H226 lung): 456 nM
- TGI (NCI-H226 lung): 12400 nM
- GI50 (MALME-3M melanoma): 286 nM
- TGI (MALME-3M melanoma): 10500 nM
- GI50 (OVCAR-5 ovarian): 367 nM
- TGI (OVCAR-5 ovarian): 13300 nM
- GI50 (SF-268 CNS): 276 nM
- TGI (SF-268 CNS): > 14300 nM
- GI50 (SW-620 colon): 327 nM
- TGI (SW-620 colon): > 14300 nM
- GI50 (NCI-H23 lung): 272 nM
- TGI (NCI-H23 lung): > 14300 nM
- GI50 (SK-MEL-2 melanoma): 233 nM
- TGI (SK-MEL-2 melanoma): 1270 nM
- GI50 (SF-295 CNS): 319 nM
- TGI (SF-295 CNS): 9170 nM
- GI50 (A549 NSCLC): 257 nM
- TGI (A549 NSCLC): > 14300 nM
- GI50 (MDA-MB-231 breast): 507 nM
- TGI (MDA-MB-231 breast): > 14300 nM
- GI50 (HCC-2998 colon): 531 nM
- TGI (HCC-2998 colon): > 14300 nM
- GI50 (SK-MEL-5 melanoma): 516 nM
- TGI (SK-MEL-5 melanoma): > 14300 nM
- GI50 (HT29 colon): 257 nM
- TGI (HT29 colon): > 14300 nM
- GI50 (NCI/ADR-RES ovarian): 2300 nM
- TGI (NCI/ADR-RES ovarian): > 14300 nM
- GI50 (UACC-62 melanoma): 331 nM
- TGI (UACC-62 melanoma): 4070 nM
- GI50 (HCT-116 colon): 198 nM
- TGI (HCT-116 colon): > 14300 nM
- GI50 (OVCAR-8 ovarian): 391 nM
- TGI (OVCAR-8 ovarian): > 14300 nM
- GI50 (SN12C renal): 221 nM
- TGI (SN12C renal): > 14300 nM
- GI50 (RPMI-8226 leukemia): 446 nM
- TGI (RPMI-8226 leukemia): 5970 nM
- GI50 (UACC-257 melanoma): 451 nM
- TGI (UACC-257 melanoma): > 14300 nM
- GI50 (HCT-15 colon): 538 nM
- TGI (HCT-15 colon): > 14300 nM
- GI50 (LOX IMVI melanoma): 416 nM
- TGI (LOX IMVI melanoma): > 14300 nM
- GI50 (T-47D breast): 164 nM
- TGI (T-47D breast): 1150 nM
- GI50 (MDA-MB-435): 376 nM
- TGI (MDA-MB-435): > 14300 nM
- GI50 (OVCAR-3 ovarian): 390 nM
- TGI (OVCAR-3 ovarian): > 14300 nM
- GI50 (HOP-62 NSCLC): 225 nM
- TGI (HOP-62 NSCLC): 4260 nM
- GI50 (BT-549 breast): 436 nM
- TGI (BT-549 breast): 8460 nM
- GI50 (RXF 393 renal): 256 nM
- TGI (RXF 393 renal): 1900 nM
- GI50 (A498 renal): 468 nM
- TGI (A498 renal): 5330 nM
- GI50 (NCI-H460 lung): 170 nM
- TGI (NCI-H460 lung): 2240 nM
- GI50 (IGROV1 ovarian): 276 nM
- TGI (IGROV1 ovarian): > 14300 nM
